We go through eight compounds from ChEMBL document CHEMBL1135579, “Serine-threonine protein phosphatase inhibitors: development of potential therapeutic strategies” (J Med Chem, 2002).

Molecules are shown by their SMILES.

The term IC50 denotes the concentration at which inhibition is half-maximal. Lower therefore signals higher potency. The term GI50 denotes the concentration at which growth is held to half of that of the control. High values mean less potent growth inhibition, low ones more potent growth inhibition.

The test system of test [1] is Jurkat. The test is described as follows: Inhibition of production of IL-2 secretion in Jurkat cells. The format is functional, cell-based. The note with it: Homo sapiens.
The subject of test [2] is Jurkat. The test is described as follows: Inhibition of production of beta-galactosidase thymidine kinase RGA in Jurkat cells. The format is functional, cell-based. The note with it: Homo sapiens.
Test [3] concerns Jurkat. The test is described as follows: Inhibition of production of beta-galactosidase IL-2 RGA in Jurkat cells. The test is classed as functional, cell-based. Conditions: Homo sapiens.
Test [4] can be described thus: Inhibition of microcystin analogues to catalytic subunits of Serine/threonine protein phosphatase 1C.
Test [5] concerns the target T1, Serine/threonine-protein phosphatase PP1-gamma catalytic subunit (Homo sapiens, UniProt P36873). The test is described as follows: Inhibition of Serine/threonine protein phosphatase 1 (PP1) mutants by natural toxins in wild type.
Target sequence in this assay (P36873 2-323 limits assumed, stated change not applied): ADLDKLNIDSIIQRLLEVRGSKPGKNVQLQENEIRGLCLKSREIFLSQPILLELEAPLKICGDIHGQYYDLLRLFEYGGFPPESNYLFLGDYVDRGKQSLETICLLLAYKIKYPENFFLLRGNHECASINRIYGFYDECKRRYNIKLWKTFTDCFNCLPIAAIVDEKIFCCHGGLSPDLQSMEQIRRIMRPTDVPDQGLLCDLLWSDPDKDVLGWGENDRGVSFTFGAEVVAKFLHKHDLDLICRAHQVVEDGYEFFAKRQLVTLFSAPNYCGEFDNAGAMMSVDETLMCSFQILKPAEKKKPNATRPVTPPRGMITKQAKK
Test [6] in a line: Exogenous inhibition concentration of Serine/threonine protein phosphatase 2B (PP2B).
Test [7] in a line: Exogenous inhibition concentration of Serine/threonine protein phosphatase 2C (PP2C); NI means no inhibition.
The nature of test [8]: Exogenous inhibition concentration of Serine/threonine protein phosphatase 4 (PP4).
Test [9] can be described thus: Exogenous inhibition of Serine/threonine protein phosphatase 1 (PP1). Also on record: species or system Homo sapiens.
In test [10] the target is T2, Serine/threonine-protein phosphatase PP1-gamma catalytic subunit (Homo sapiens, UniProt P36873, H248N). The test is described as follows: Inhibition of Serine/threonine protein phosphatase 1 (PP1) mutant type H248N by compound was evaluated.
The target of test [11] is T3, Serine/threonine-protein phosphatase PP1-gamma catalytic subunit (Homo sapiens, UniProt P36873, C127S). The test is described as follows: Inhibition of Serine/threonine protein phosphatase 1 (PP1) mutant type C127S by compound was evaluated.
Test [12] deals with T4, Serine/threonine-protein phosphatase PP1-gamma catalytic subunit (Homo sapiens, UniProt P36873, D208A). The test is described as follows: Inhibition of Serine/threonine protein phosphatase 1 (PP1) mutant type D208A by compound was evaluated.
Test [13] concerns the target T5, Serine/threonine-protein phosphatase PP1-gamma catalytic subunit (Homo sapiens, UniProt P36873, D220V). The test is described as follows: Inhibition of Serine/threonine protein phosphatase 1 (PP1) mutant type D220V by compound was evaluated.
In test [14] the target is T6, Serine/threonine-protein phosphatase PP1-gamma catalytic subunit (Homo sapiens, UniProt P36873, E275R). The test is described as follows: Inhibition of Serine/threonine protein phosphatase 1 (PP1) mutant type E275R by compound was evaluated.
The target in test [15] is T7, Serine/threonine-protein phosphatase PP1-gamma catalytic subunit (Homo sapiens, UniProt P36873, N124D). The test is described as follows: Inhibition of Serine/threonine protein phosphatase 1 (PP1) mutant type N124D by compound was evaluated.
The target of test [16] is T8, Serine/threonine-protein phosphatase PP1-gamma catalytic subunit (Homo sapiens, UniProt P36873, R221S). The test is described as follows: Inhibition of Serine/threonine protein phosphatase 1 (PP1) mutant type R221S by compound was evaluated.
Test [17] addresses T9, Serine/threonine-protein phosphatase PP1-gamma catalytic subunit (Homo sapiens, UniProt P36873, R96A). The test is described as follows: Inhibition of Serine/threonine protein phosphatase 1 (PP1) mutant type R96A by compound was evaluated.
For test [18], the target named is T10, Serine/threonine-protein phosphatase PP1-gamma catalytic subunit (Homo sapiens, UniProt P36873, Y272F). The test is described as follows: Inhibition of Serine/threonine protein phosphatase 1 (PP1) mutant type Y272F by compound was evaluated.
A short description of test [19]: Exogenous inhibition concentration of Serine/threonine protein phosphatase 2A (PP2A).
Test [20] can be described thus: Exogenous inhibition concentration of Serine/threonine protein phosphatase 2C ([…]).
Test [21] is described as follows: Inhibition of growth after 72 hr continuous exposure to test compounds in Ovarian A2780 tumor cell lines. The format is functional. Conditions: A2780, 72 h.
The nature of test [22]: Inhibition of growth after 72 hr continuous exposure to test compounds in Osteosarcoma 143B tumor cell lines. The test is classed as functional. The note with it: Homo sapiens.
Test [23] is described as follows: Inhibition of growth after 72 hr continuous exposure to test compounds in Ovarian ADDP tumor cell lines. The test is classed as functional.
The target in test [24] is T1, Serine/threonine-protein phosphatase PP1-gamma catalytic subunit. The test is described as follows: Inhibition of Serine/threonine protein phosphatase 1 by anhydride modified Cantharidin analogues.
Target sequence in this assay (P36873 whole entry): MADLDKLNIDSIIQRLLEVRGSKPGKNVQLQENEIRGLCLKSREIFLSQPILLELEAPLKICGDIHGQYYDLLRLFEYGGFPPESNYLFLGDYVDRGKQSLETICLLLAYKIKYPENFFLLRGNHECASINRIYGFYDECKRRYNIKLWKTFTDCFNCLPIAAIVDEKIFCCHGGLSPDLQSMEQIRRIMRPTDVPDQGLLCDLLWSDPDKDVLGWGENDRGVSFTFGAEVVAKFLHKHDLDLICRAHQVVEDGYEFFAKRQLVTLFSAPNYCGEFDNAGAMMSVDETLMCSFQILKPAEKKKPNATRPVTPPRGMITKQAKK
The target of test [25] is T11, Serine-threonine protein phosphatase 2A regulatory subunit (Gallus gallus, UniProt Q8AWE3).
T11 sequence (Q8AWE3 whole entry): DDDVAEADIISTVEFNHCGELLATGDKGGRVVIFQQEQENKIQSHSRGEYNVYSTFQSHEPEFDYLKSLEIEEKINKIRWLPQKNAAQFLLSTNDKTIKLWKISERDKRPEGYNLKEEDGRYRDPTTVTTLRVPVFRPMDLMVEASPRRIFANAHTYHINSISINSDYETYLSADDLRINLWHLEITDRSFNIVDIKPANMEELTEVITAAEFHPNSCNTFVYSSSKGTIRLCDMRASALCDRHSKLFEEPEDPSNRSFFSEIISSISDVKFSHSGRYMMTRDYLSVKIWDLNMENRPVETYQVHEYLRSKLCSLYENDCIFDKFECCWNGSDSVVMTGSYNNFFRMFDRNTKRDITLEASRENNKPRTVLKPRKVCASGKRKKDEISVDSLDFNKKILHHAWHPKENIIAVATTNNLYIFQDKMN
The test is described as follows: Inhibition of Serine/threonine protein phosphatase 2A by anhydride modified Cantharidin analogues.

Test [26] has as its target T12, Serine-threonine protein phosphatase 2A regulatory subunit (Gallus gallus) (UniProt Q8AWE3).
T12 sequence (whole entry): T11 sequence (Q8AWE3 whole entry)
The test is described as follows: Tested for selective inhibition of Serine/threonine protein phosphatase 2A (PP2A) with respect to inhibition of Serine/threonine protein phosphatase 1 (PP1).

The nature of test [27]: Inhibition of growth after 72 hr continuous exposure to test compounds in Colon HCT 116 tumor cell lines. The format is functional. The note with it: Homo sapiens, HCT-116, 72 h.
Test [28] in a line: Inhibition of growth after 72 hr continuous exposure to test compounds in colon HT-29 tumor cell lines. The test is classed as functional. Conditions: Homo sapiens, HT-29, 72 h.
A short description of test [29]: Exogenous inhibition concentration of Serine/threonine protein phosphatase 5 (PP5).
For test [30], the target named is T3, Serine/threonine-protein phosphatase PP1-gamma catalytic subunit. The test is described as follows: Inhibition of Serine/threonine protein phosphatase 1 (PP1) mutants by natural toxins in C127S.
The target of test [31] is T4, Serine/threonine-protein phosphatase PP1-gamma catalytic subunit. The test is described as follows: Inhibition of Serine/threonine protein phosphatase 1 (PP1) mutants by natural toxins in D208A.
The target of test [32] is T5, Serine/threonine-protein phosphatase PP1-gamma catalytic subunit. The test is described as follows: Inhibition of Serine/threonine protein phosphatase 1 (PP1) mutants by natural toxins in D220V.
Test [33] has as its target T6, Serine/threonine-protein phosphatase PP1-gamma catalytic subunit. The test is described as follows: Inhibition of Serine/threonine protein phosphatase 1 (PP1) mutants by natural toxins in E275R.
For test [34], the target named is T2, Serine/threonine-protein phosphatase PP1-gamma catalytic subunit. The test is described as follows: Inhibition of Serine/threonine protein phosphatase 1 (PP1) mutants by natural toxins in H248N.
The target in test [35] is T8, Serine/threonine-protein phosphatase PP1-gamma catalytic subunit. The test is described as follows: Inhibition of Serine/threonine protein phosphatase 1 (PP1) mutants by natural toxins in R221S.
For test [36], the target named is T9, Serine/threonine-protein phosphatase PP1-gamma catalytic subunit. The test is described as follows: Inhibition of Serine/threonine protein phosphatase 1 (PP1) mutants by natural toxins in R96A.
In test [37] the target is T10, Serine/threonine-protein phosphatase PP1-gamma catalytic subunit. The test is described as follows: Inhibition of Serine/threonine protein phosphatase 1 (PP1) mutants by natural toxins in Y272F.
The target in test [38] is T7, Serine/threonine-protein phosphatase PP1-gamma catalytic subunit. The test is described as follows: Inhibition of Serine/threonine protein phosphatase 1 (PP1) mutants by natural toxins in N124D.

T7 sequence (P36873 2-323 N124D limits assumed): as the sequence (P36873 2-323 limits assumed, stated change not applied) above, with N123D counted along it
T10 sequence (P36873 2-323 Y272F limits assumed): as the sequence (P36873 2-323 limits assumed, stated change not applied) above, with Y271F counted along it
T5 sequence (P36873 2-323 D220V limits assumed): as the sequence (P36873 2-323 limits assumed, stated change not applied) above, with D219V counted along it
T2 sequence (P36873 2-323 H248N limits assumed): as the sequence (P36873 2-323 limits assumed, stated change not applied) above, with H247N counted along it
T3 sequence (P36873 2-323 C127S limits assumed): as the sequence (P36873 2-323 limits assumed, stated change not applied) above, with C126S counted along it
T6 sequence (P36873 2-323 E275R limits assumed): as the sequence (P36873 2-323 limits assumed, stated change not applied) above, with E274R counted along it
T4 sequence (P36873 2-323 D208A limits assumed): as the sequence (P36873 2-323 limits assumed, stated change not applied) above, with D207A counted along it
T8 sequence (P36873 2-323 R221S limits assumed): as the sequence (P36873 2-323 limits assumed, stated change not applied) above, with R220S counted along it
T9 sequence (P36873 2-323 R96A limits assumed): as the sequence (P36873 2-323 limits assumed, stated change not applied) above, with R95A counted along it

As for `CN(C)C(=O)C1C(C(=O)O)C2CC[C@H]1O2` (some centres undefined), the results for the IC50 with Jurkat [1], with Jurkat [2] and in the test with Jurkat [3] were 5 µM, 100 µM and 4.7 µM, respectively.
The compound `C=C1C(=O)N[C@H](C)C(=O)N[C@@H](CC2CCCCC2)C(=O)C[C@@H](C(=O)O)[C@H](C)C(=O)N[C@@H](C)C(=O)N[C@@H](/C=C/C(C)=C/[C@H](C)[C@H](Cc2ccccc2)OC)[C@H](C)C(=O)N[C@@H](C(=O)O)CCC(=O)N1C` showed an IC50 in test [4] of 0.00052 µM. This counts as sub-nanomolar.
Turning to `C/C=C/C[C@@H](C)[C@@H](O)[C@H]1C(=O)N[C@@H](CC)C(=O)N(C)CC(=O)N(C)[C@@H](CC(C)C)C(=O)N[C@@H](C(C)C)C(=O)N(C)[C@@H](CC(C)C)C(=O)N[C@@H](C)C(=O)N[C@H](C)C(=O)N(C)[C@@H](CC(C)C)C(=O)N(C)[C@@H](CC(C)C)C(=O)N(C)[C@@H](C(C)C)C(=O)N1C` [CYCLOSPORINE], the results for the IC50 in the test on Jurkat [1], with Jurkat [2] and in the test with Jurkat [3] were 0.007 µM, > 1 µM and 0.008 µM, respectively.
In turn, `CO[C@@H](Cc1ccccc1)[C@@H](C)/C=C(C)/C=C/[C@@H]1NC(=O)[C@H](C)NC(=O)[C@@H](C)[C@H](C(=O)O)CC(=O)[C@H](CC(C)C)NC(=O)[C@@H](C)NC(=O)CN(C)C(=O)CC[C@H](C(=O)O)NC(=O)[C@H]1C` registered an IC50 in test [4] of 0.0008 µM. That is a sub-nanomolar value.
With `C=C1[C@@H](O)[C@@H]2O[C@]3(CC[C@H](/C=C/[C@@H](C)[C@@H]4CC(C)=C[C@@]5(O[C@H](C[C@@](C)(O)C(=O)O)CC[C@H]5O)O4)O3)CC[C@H]2O[C@@H]1[C@@H](O)C[C@H](C)[C@H]1O[C@@]2(CCCCO2)CC[C@H]1C` [OKADAIC ACID], the IC50 in test [5] is 0.045 µM; in test [6] it was > 10000 µM; in test [7], “no inhibition”; in test [8] it was 0.0002 µM; in test [9], 0.003 µM; in test [10], > 5 µM. Besides, the IC50 in test [11] was 0.078 µM; in [12] it was > 5 µM; in [13] it was 0.028 µM; in test [14], 0.048 µM; in test [15] it was > 5 µM; in test [16], > 5 µM. In addition, the IC50 in [17] came to 0.26 µM; in [18] it was 1.15 µM.
As to `CO[C@H]([C@H](O)CC(=O)[C@@H](C)[C@@H](O)CC[C@@H](C)[C@@H]1O[C@]2(CC[C@@H](C)[C@H](CC[C@H](C)C(C)=O)O2)CC[C@@H]1C)[C@H](OC(=O)C[C@@H](O)C1=C(C)C(=O)OC1=O)C(C)C` [TAUTOMYCIN], the IC50 was 0.0007 µM in [19], 70000 µM in test [20], “no inhibition” in test [7] and 0.0007 µM in test [9].
With `CCOC(=O)C1C(C(=O)O)C2CC[C@H]1O2` (some centres undefined), the GI50 is 185 µM in [21]; 437 µM in test [22]; 330 µM in [23]; 266 µM in test [27]; 243 µM in [28]. For the same compound, the IC50 in test [24] worked out at 2.96 µM; in test [25] it was 0.45 µM. The compound further had a PP2A Selectivity in [26] of 6.6.
Turning to `COC[C@@H]([C@H](O)[C@H](O)C(=O)NCC[C@H](C)c1nc(/C=C/C[C@@H]2O[C@]3(C[C@@H](O)[C@@H]2C)O[C@H]([C@H](C[C@H](O)[C@H](C)[C@H](O)[C@H](C)/C=C(C)/C(C)=C/C=C/C(C)=C\C#N)OC)[C@H](OP(=O)(O)O)C3(C)C)co1)N(C)C` [CALYCULIN A], the IC50 in test [5] was 0.00045 µM; in [29] it was < 0.003 µM; in [19], 0.0002 µM; in test [6], > 10000 µM; in [7] it was “no inhibition”; in test [30], 0.0022 µM. Moreover, the half-inhibitory concentration (IC50) is > 0.5 µM in test [31]; 0.00014 µM in [32]; 0.0004 µM in test [33]; > 0.5 µM in test [34]; > 0.5 µM in [35]; 0.058 µM in test [36]. Besides, the IC50 was 0.048 µM in [37], 0.0003 µM in test [9] and > 0.5 µM in test [38].
